Measured values published in patent KR20200071421A, “왕귀뚜라미에서 유래한 항균 펩타이드 테레오그릴루신 3 및 그의 조성물” (대한민국(농촌진흥청장), priority 2018, dated 2020).
Peptide text beside a SMILES is read from it.

Tested on: rat erythrocytes
Assay: Cytotoxicity to rat erythrocytes (hemolysis, absorbance 550 nm)
Assay type: cell-based
Details: for % 렛 적혈구 파괴능: 37 ℃, 30 min, 0.1 % Triton X-100 = 100 %

| SMILES | % 렛 적혈구 파괴능 (12.5 ㎍/ml peptide) [%] | % 렛 적혈구 파괴능 (25 ㎍/ml peptide) [%] | % 렛 적혈구 파괴능 (50 ㎍/ml peptide) [%] | % 렛 적혈구 파괴능 (100 ㎍/ml peptide) [%] | % 렛 적혈구 파괴능 (200 ㎍/ml peptide) [%] | erythrocyte lysis, result in words (concentrations up to 200 ㎍/ml) | cytotoxicity to erythrocytes, result in words (even at low concentrations) |
| --- | --- | --- | --- | --- | --- | --- | --- |
| CC[C@H](C)[C@H](NC(=O)[C@H](Cc1ccccc1)NC(=O)[C@H](Cc1ccccc1)NC(=O)[C@H](CC(C)C)NC(=O)[C@H](CCCCN)NC(=O)[C@H](CC(N)=O)NC(=O)[C@H](CCCCN)NC(=O)[C@H](Cc1c[nH]c2ccccc12)NC(=O)[C@H](Cc1ccccc1)NC(=O)[C@@H](N)CCSC)C(=O)N[C@H](C(=O)N[C@@H](CCCCN)C(=O)N[C@@H](CCCCN)C(N)=O)C(C)C [Teleogryllusine 3, MFWKNKLFFIVKK-NH2] (H-MFWKNKLFFIVKK-NH2) | 0 | 0.09 | 0.28 | 0 | 1.22 | 파괴능이 미미함 | – |
| CC[C@H](C)[C@H](NC(=O)CN)C(=O)NCC(=O)N[C@@H](C)C(=O)N[C@H](C(=O)N[C@@H](CC(C)C)C(=O)N[C@@H](CCCCN)C(=O)N[C@H](C(=O)N[C@@H](CC(C)C)C(=O)N[C@H](C(=O)N[C@H](C(=O)NCC(=O)N[C@@H](CC(C)C)C(=O)N1CCC[C@H]1C(=O)N[C@@H](C)C(=O)N[C@@H](CC(C)C)C(=O)N[C@H](C(=O)N[C@@H](CO)C(=O)N[C@@H](Cc1c[nH]c2ccccc12)C(=O)N[C@H](C(=O)N[C@@H](CCCCN)C(=O)N[C@@H](CCCNC(=N)N)C(=O)N[C@@H](CCCCN)C(=O)N[C@@H](CCCNC(=N)N)C(=O)N[C@@H](CCC(N)=O)C(=O)N[C@@H](CCC(N)=O)C(N)=O)[C@@H](C)CC)[C@@H](C)CC)[C@@H](C)O)[C@@H](C)O)C(C)C)C(C)C [멜리틴] | 75.8 | 83.1 | 89.8 | 88.3 | 91.4 | – | 높은 세포 독성 |
